In patent publication US20060069132A1, “Azolecarboxamide herbicides” (priority 2004, published 2006):

Key:
[1] = tested on: rice; test: Test B pre-/postemergence herbicide test; type: in vivo, Oryza sativa; settings: preemergence, 125 g ai/ha; 0 to 100 scale, 0 is no effect, 100 is complete control
Summary of the method: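 Greenhouse pot assay with simultaneous preemergence (treated seed) and postemergence (2–18 cm seedlings) applications of surfactant-containing, non-phytotoxic solvent formulations. Response scored visually 13–15 days later on a 0–100 scale, 100 meaning complete control.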

[2] = tested on: cocklebur; test: Test B pre-/postemergence herbicide test; type: in vivo, Xanthium strumarium; settings: for Plant response rating, Cocklebur: preemergence; for Cocklebur plant response rating: postemergence, visual rating, scale 0 (no effect) to 100 (complete control)
Summary of the method: (§1)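 Herbicidal effect was judged by eye on a 0–100 scale after plants stood 13 to 15 days in the greenhouse following pre- or postemergence treatment with surfactant-containing formulations.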

[3] = tested on: ducksalad; test: Test B flooded paddy test; type: in vivo, Heteranthera limosa; settings: 1000 g ai/ha, visual rating, scale 0 to 100 (0 no effect, 100 complete control), 13 to 15 days
Summary of the method: (§2)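 Treated at 2-leaf (paddy) or 1–4-leaf, 2–18 cm (postemergence); greenhouse 13–15 d; visual score vs control, 0 none to 100 complete control; dash = not tested.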

[4] = tested on: velvetleaf; test: Test A pre-/postemergence herbicide test; type: in vivo, Abutilon theophrasti
Summary of the method: (§3)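 Both application timings were run together: directed soil spray over freshly planted seeds in sandy loam, and runoff spray onto 2–10 cm seedlings. Evaluation after ~10 days in greenhouse used a 0–100 visual scale versus untreated controls.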

[5] = tested on: Surinam grass; test: Test B pre-/postemergence herbicide test; type: in vivo, Urochloa decumbens; settings: for Plant response rating, Surinam Grass: preemergence; for Surinam Grass plant response rating: postemergence, visual rating, scale 0 (no effect) to 100 (complete control)
Summary of the method: (§4)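 Plants compared with untreated controls 13–15 days post-treatment and given a visual 0–100 injury score. Applications: preemergence to seeds; postemergence at 1- to 4-leaf (2–18 cm); paddy species flooded, 2-leaf stage. Vehicle non-phytotoxic, surfactant included.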

[6] = tested on: morningglory; test: Test A pre-/postemergence herbicide test; type: in vivo, Ipomoea spp.
Summary of the method: as §3

[7] = tested on: blackgrass; test: Test B postemergence herbicide test; type: in vivo, Alopecurus myosuroides; settings: postemergence, visual rating, scale 0 (no effect) to 100 (complete control)
Summary of the method: as §2

[8] = tested on: large crabgrass; test: Test B pre-/postemergence herbicide test; type: in vivo, Digitaria sanguinalis; settings: for Plant response rating, Crabgrass, Large: preemergence; for Crabgrass, Large plant response rating: postemergence, visual rating, scale 0 (no effect) to 100 (complete control)
Summary of the method: as §4

[9] = tested on: wheat; test: Test B postemergence herbicide test; type: in vivo, Triticum aestivum; parameters: key to Wheat plant response rating: 0 = no effect, 100 = complete control; settings: postemergence, visual rating, scale 0 (no effect) to 100 (complete control)
Summary of the method: (§5)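 After treating 2-leaf paddy plants or 2–18 cm postemergence plants (1 to 4 leaves) with formulated chemical, researchers kept them in a greenhouse for 13–15 days. Effects were judged visually versus controls: 0 indicates none, 100 total control.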

[10] = tested on: barnyardgrass; test: Test A pre-/postemergence herbicide test; type: in vivo, Echinochloa crus-galli
Summary of the method: as §3

[11] = tested on: wild oat; test: Test B postemergence herbicide test; type: in vivo, Avena fatua; settings: postemergence, visual rating, scale 0 (no effect) to 100 (complete control)
Summary of the method: as §5

[12] = tested on: redroot pigweed; test: Test A pre-/postemergence herbicide test; type: in vivo, Amaranthus retroflexus
Summary of the method: as §3

[13] = tested on: giant foxtail; test: Test A pre-/postemergence herbicide test; type: in vivo, Setaria faberi
Summary of the method: as §3

[14] = tested on: large crabgrass; test: Test A pre-/postemergence herbicide test; type: in vivo, Digitaria sanguinalis
Summary of the method: as §3

[15] = tested on: barnyardgrass; test: Test B flooded paddy test; type: in vivo, Echinochloa crus-galli; settings: 1000 g ai/ha, visual rating, scale 0 to 100 (0 no effect, 100 complete control), 13 to 15 days
Summary of the method: as §2

[16] = tested on: rice; test: Test B flooded paddy test; type: in vivo, Oryza sativa; settings: 1000 g ai/ha, visual rating, scale 0 to 100 (0 no effect, 100 complete control), 13 to 15 days
Summary of the method: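 Formulated test chemicals went onto postemergence plants measuring 2 to 18 cm, at one to four leaves. For the paddy assay, species had reached two leaves. Scoring took place 13–15 days later by eye, relative to untreated plants, using 0 for no effect up to 100 for full control.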

[17] = tested on: small flower umbrella sedge; test: Test B flooded paddy test; type: in vivo, Cyperus difformis; settings: 1000 g ai/ha, visual rating, scale 0 to 100 (0 no effect, 100 complete control), 13 to 15 days
Summary of the method: as §2

[18] = tested on: giant foxtail; test: Test B pre-/postemergence herbicide test; type: in vivo, Setaria faberi; settings: for Plant response rating, Foxtail, Giant: preemergence; for Foxtail, Giant plant response rating: postemergence, visual rating, scale 0 (no effect) to 100 (complete control)
Summary of the method: as §4

[19] = tested on: morningglory; test: Test B pre-/postemergence herbicide test; type: in vivo, Ipomoea coccinea; settings: preemergence, 125 g ai/ha; 0 to 100 scale, 0 is no effect, 100 is complete control
Summary of the method: as §1

[20] = tested on: barnyardgrass; test: Test B pre-/postemergence herbicide test; type: in vivo, Echinochloa crus-galli; settings: for Plant response rating, Barnyardgrass: preemergence; for Barnyardgrass plant response rating: postemergence, visual rating, scale 0 (no effect) to 100 (complete control)
Summary of the method: as §1

[21] = tested on: lambsquarters; test: Test B pre-/postemergence herbicide test; type: in vivo, Chenopodium album; settings: for Plant response rating, Lambsquarters: preemergence; for Lambsquarters plant response rating: postemergence, visual rating, scale 0 (no effect) to 100 (complete control)
Summary of the method: as §4

[22] = tested on: velvetleaf; test: Test B pre-/postemergence herbicide test; type: in vivo, Abutilon theophrasti; settings: for Plant response rating, Velvetleaf: preemergence; for Velvetleaf plant response rating: postemergence, visual rating, scale 0 (no effect) to 100 (complete control)
Summary of the method: as §4

[23] = tested on: pigweed; test: Test B pre-/postemergence herbicide test; type: in vivo, Amaranthus retroflexus; settings: for Plant response rating, Pigweed: preemergence; for Pigweed plant response rating: postemergence, visual rating, scale 0 (no effect) to 100 (complete control)
Summary of the method: as §4

[24] = tested on: corn; test: Test B pre-/postemergence herbicide test; type: in vivo, Zea mays; settings: preemergence
Summary of the method: as §4

[25] = 500 g ai/ha, visual rating 0-100, 0 no effect, 100 complete control
[26] = 125 g ai/ha, 0 to 100 scale, 0 is no effect, 100 is complete control
[27] = Postemergence, 500 g ai/ha, 0 to 100 scale, 0 no effect, 100 complete control
[28] = Postemergence, 2000 g ai/ha, 0 to 100 scale, 0 no effect, 100 complete control
[29] = Preemergence, 2000 g ai/ha, visual rating, 0 to 100 scale (0 no effect, 100 complete control)
[30] = preemergence, 500 g ai/ha, visual injury, 0 to 100 scale (0 no effect, 100 complete control)
[31] = Preemergence, 500 g ai/ha, visual rating, 0 to 100 scale (0 no effect, 100 complete control)

In the case of CCC(C)c1cc(C(=O)Nc2cccc(C(C)=NO)c2)n(C)n1 (stereo not shown) [Compound 120], the “Plant response rating, Rice” value [1] is reported as 0, the “Plant response rating, Cocklebur” value [2, 25] is reported as 0 and the “Cocklebur plant response rating” value ([2]; 125 g ai/ha) is reported as 30. The “Cocklebur plant response rating” value ([2]; 500 g ai/ha) was 60, the “Plant response rating, Cocklebur” value [2, 26] was 0 and the “Ducksalad plant response rating” value [3] was 70. For the same molecule, the “Velvetleaf plant response rating” value [4, 27] was 25, the “Plant response rating, Velvetleaf” value [4, 28] was 30 and the “Velvetleaf plant response rating” value [4, 29] was 40. The “Velvetleaf plant response rating” value [4, 30] was 20, the “Plant response rating, Surinam Grass” value [5, 25] was 0 and the “Surinam Grass plant response rating” value ([5]; 125 g ai/ha) was 20. The “Surinam Grass plant response rating” value ([5]; 500 g ai/ha) was 50, the “Plant response rating, Surinam Grass” value [5, 26] was 0 and the “Morningglory plant response rating” value [6, 27] was 20. The “Plant response rating, Morningglory” value [6, 28] was 40, the “Morningglory plant response rating” value [6, 31] was 20 and the “Morningglory plant response rating” value [6, 29] was 55. The “Blackgrass plant response rating” value ([7]; 125 g ai/ha) was 0, the “Blackgrass plant response rating” value ([7]; 500 g ai/ha) was 10 and the “Plant response rating, Crabgrass, Large” value [8, 25] was 90. The “Crabgrass, Large plant response rating” value ([8]; 125 g ai/ha) was 10, the “Crabgrass, Large plant response rating” value ([8]; 500 g ai/ha) was 20 and the “Plant response rating, Crabgrass, Large” value [8, 26] was 70. The “Wheat plant response rating” value ([9]; 125 g ai/ha) was 10, the “Wheat plant response rating” value ([9]; 500 g ai/ha) was 10 and the “Barnyardgrass plant response rating” value [10, 27] was 45. For the same molecule, the “Plant response rating, Barnyardgrass” value [10, 28] was 65, the “Barnyardgrass plant response rating” value [10, 31] was 30 and the “Barnyardgrass plant response rating” value [10, 29] was 85. The “Oat, Wild plant response rating” value ([11]; 125 g ai/ha) was 10, the “Oat, Wild plant response rating” value ([11]; 500 g ai/ha) was 10 and the “Pigweed plant response rating” value [12, 27] was 50. The “Plant response rating, Pigweed” value [12, 28] was 85, the “Pigweed plant response rating” value [12, 29] was 50 and the “Pigweed plant response rating” value [12, 30] was 20. The “Foxtail, Giant plant response rating” value [13, 27] was 20, the “Plant response rating, Foxtail, Giant” value [13, 28] was 20 and the “Foxtail, Giant plant response rating” value [13, 31] was 25. For the same molecule, the “Foxtail, Giant plant response rating” value [13, 29] was 55, the “Crabgrass, Large plant response rating” value [14, 27] was 50 and the “Plant response rating, Crabgrass, Large” value [14, 28] was 65. For the same molecule, the “Crabgrass, Large plant response rating” value [14, 31] was 45, the “Crabgrass, Large plant response rating” value [14, 29] was 75 and the “Barnyardgrass plant response rating” value [15] was 30. For the same molecule, the “Rice plant response rating” value [16] was 0, the “Sedge, Umbrella plant response rating” value [17] was 10 and the “Plant response rating, Foxtail, Giant” value [18, 25] was 70. For the same molecule, the “Foxtail, Giant plant response rating” value ([18]; 125 g ai/ha) was 10, the “Foxtail, Giant plant response rating” value ([18]; 500 g ai/ha) was 10 and the “Plant response rating, Foxtail, Giant” value [18, 26] was 0. The “Plant response rating, Morningglory” value [19] was 10, the “Plant response rating, Barnyardgrass” value [20, 25] was 90 and the “Barnyardgrass plant response rating” value ([20]; 125 g ai/ha) was 10. For the same molecule, the “Barnyardgrass plant response rating” value ([20]; 500 g ai/ha) was 10, the “Plant response rating, Barnyardgrass” value [20, 26] was 0 and the “Plant response rating, Lambsquarters” value [21, 25] was 20. The “Lambsquarters plant response rating” value ([21]; 125 g ai/ha) was 0, the “Lambsquarters plant response rating” value ([21]; 500 g ai/ha) was 50 and the “Plant response rating, Lambsquarters” value [21, 26] was 0. For the same molecule, the “Plant response rating, Velvetleaf” value [22, 25] was 40, the “Velvetleaf plant response rating” value ([22]; 125 g ai/ha) was 10 and the “Velvetleaf plant response rating” value ([22]; 500 g ai/ha) was 30. For the same molecule, the “Plant response rating, Velvetleaf” value [22, 26] was 20, the “Plant response rating, Pigweed” value [23, 25] was 30 and the “Pigweed plant response rating” value ([23]; 125 g ai/ha) was 10. The “Pigweed plant response rating” value ([23]; 500 g ai/ha) was 70, the “Plant response rating, Pigweed” value [23, 26] was 0 and the “Plant response rating, Corn” value [24, 25] was 0. For the same molecule, the “Plant response rating, Corn” value [24, 26] was 0.
